Experimental data taken from paper PMC12197678, “Cvill6 and Cvill7: Potent and Selective Peptide Blockers of Kv1.2 Ion Channel Isolated from Mexican Scorpion Centruroides villegasi” (Toxins, 2025).
Read-outs that look alike come from different tables or passages of the source. Positions of bridges follow the written chain, without caps; N, C: chain ends. Residues, ends and D or L forms follow the SMILES beside them.

What was measured:
hKv1.1 = target: T1, hKv1.1 (Homo sapiens, UniProt Q09470); assay: cell-based; assay type: cell-based
T1 construct: host or cells: CHO cells, transient transfection (Lipofectamine 2000)
T1 sequence (Q09470 whole entry): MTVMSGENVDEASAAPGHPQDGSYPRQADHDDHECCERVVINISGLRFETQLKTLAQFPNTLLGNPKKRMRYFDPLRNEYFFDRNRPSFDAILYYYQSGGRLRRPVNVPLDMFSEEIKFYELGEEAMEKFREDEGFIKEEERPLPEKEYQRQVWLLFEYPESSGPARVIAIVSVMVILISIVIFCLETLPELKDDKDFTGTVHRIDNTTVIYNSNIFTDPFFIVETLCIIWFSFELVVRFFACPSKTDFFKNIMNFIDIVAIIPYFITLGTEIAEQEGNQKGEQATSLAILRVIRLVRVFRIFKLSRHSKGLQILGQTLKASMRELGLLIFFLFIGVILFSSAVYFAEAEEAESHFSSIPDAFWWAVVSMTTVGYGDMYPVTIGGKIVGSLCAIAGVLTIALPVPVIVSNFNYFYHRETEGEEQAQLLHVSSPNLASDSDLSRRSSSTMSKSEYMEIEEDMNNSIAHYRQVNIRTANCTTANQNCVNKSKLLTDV
Procedure: Chinese hamster ovary (CHO) cells (generously provided by Yosef Yarden, Weizmann Institute of Science, Rehovot, Israel) or human embryonic kidney (HEK293) cells were cultured and maintained in Dulbecco’s modified Eagle medium (DMEM, Thermo Fisher Scientific, Waltham, MA, USA) supplemented with 2 mM L-glutamine, 10% fetal bovine serum (FBS), 100 µg/mL streptomycin, and 100 U/mL penicillin-g (Sigma-Aldrich, Budapest, Hungary) following standard culturing conditions [52]. For transient expression of ion channels, CHO cells were transfected using the Lipofectamine 2000 kit (Invitrogen, Waltham, MA, USA) following the manufacturer’s instructions with plasmids encoding specific ion channels, including hKv1.1 (KCNA1 gene), hKv1.2 (KCNA2 gene), and hKv1.5 (KCNA5 gene) in a pCMV6-AC-GFP vector (OriGene Technologies), hKCa2.2 (KCNN2 gene) in a pCDN3 plasmid (for this transfection a GFP containing plasmid was co-transfected, courtesy of Bernard Attali, Tel Aviv University, Tel Aviv, Israel), and hKCa3.1 (KCNN4 gene) in a pEGFP-C1 vector (a kind gift by H. Wulff, University of California, Davis, CA, USA). […] Electrophysiological recordings were typically conducted 24 to 48 h after transfection.
Whole-cell currents were recorded using the patch-clamp technique in voltage-clamp mode, following standard protocols [73]. […] Micropipettes were made from GC150F-7.5 borosilicate capillaries (Harvard Apparatus Co., Holliston, MA, USA) using a Sutter P2000 laser puller with tip resistance generally ranging from 3–6 MΩ in the bath solution. Only recordings with a leak current at the holding potential (Vh) of <10% of the peak current at the test potential were included in the data analysis. All recordings were performed at room temperature (20–25 °C). Control and test solutions were perfused to the cells via a gravity-driven micro-perfusion system and AutoMate Perfusion Pencil Multi-Barrel Manifold Tip (AutoMate Scientific, Berkeley, CA, USA), with an approximate flow rate of 200 µL/min, and the excess amount of bath solution was continuously removed from the recording chamber using vacuum suction.
The duration of depolarization pulses was 15 ms for Kv1.3 and 50 ms for Kv1.1 and Kv1.5. However, for Kv1.2, 15–500 ms-long pulses were used to achieve the saturated peak current due to the variable activation kinetics of this channel [74].

hKv11.1 (hERG1) = assay: Whole-cell patch-clamp, hKv11.1 current in stable HEK293 cells; assay type: cell-based, human; conditions: 100 nM; ~3 min
Procedure: HEK 293 cells stably expressing mKCa1.1 1 (BKCa, Kcnma1 gene, generously provided by C. Beeton from Baylor College of Medicine, Houston, TX, USA) or hKv11.1 (hERG1, KCNH2 gene, gifted by H. Wulff from University of California, Davis, CA, USA) were utilized in this study.
Whole-cell currents were recorded using the patch-clamp technique in voltage-clamp mode, following standard protocols [73]. […] Micropipettes were made from GC150F-7.5 borosilicate capillaries (Harvard Apparatus Co., Holliston, MA, USA) using a Sutter P2000 laser puller with tip resistance generally ranging from 3–6 MΩ in the bath solution. Only recordings with a leak current at the holding potential (Vh) of <10% of the peak current at the test potential were included in the data analysis. All recordings were performed at room temperature (20–25 °C). […]

hKv1.3 = target: T2, hKv1.3 (Homo sapiens, UniProt P22001); assay: cell-based; assay type: cell-based
T2 construct: peripheral blood mononuclear cells (PBMCs) were isolated from the healthy donor’s blood; endogenous in cells
T2 sequence (P22001 whole entry): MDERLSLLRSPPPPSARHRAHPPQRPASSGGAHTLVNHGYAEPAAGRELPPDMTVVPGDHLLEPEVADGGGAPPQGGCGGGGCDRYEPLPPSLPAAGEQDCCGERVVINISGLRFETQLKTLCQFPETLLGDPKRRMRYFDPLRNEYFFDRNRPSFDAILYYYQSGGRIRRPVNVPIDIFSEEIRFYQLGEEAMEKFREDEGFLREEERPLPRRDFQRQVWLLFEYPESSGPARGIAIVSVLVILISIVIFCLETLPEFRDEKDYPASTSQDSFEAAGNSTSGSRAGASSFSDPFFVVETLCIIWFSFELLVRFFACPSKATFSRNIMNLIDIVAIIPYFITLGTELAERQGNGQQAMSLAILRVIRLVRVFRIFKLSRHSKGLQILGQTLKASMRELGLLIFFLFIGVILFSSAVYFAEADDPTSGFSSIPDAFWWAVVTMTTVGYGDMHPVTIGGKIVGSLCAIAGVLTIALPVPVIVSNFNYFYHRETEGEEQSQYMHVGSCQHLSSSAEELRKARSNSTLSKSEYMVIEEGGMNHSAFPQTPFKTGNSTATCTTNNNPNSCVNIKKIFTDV
Text: Therefore, we aimed to investigate the effects of Cvill6 and Cvill7 on voltage-gated K^+ ion channels. Among the tested ion channels there were four members from the Shaker-related human Kv1 family, hKv1.1, hKv1.2, hKv1.3, and hKv1.5 (Figure 3A–E), and one member of the human ether-a-go-go-related (hERG) cardiac K^+ channel hKv11.1 (hERG1, Figure 3F). For current recordings, Kv1.1, Kv1.2, and Kv1.5 were transiently expressed in CHO cells while for Kv11.1 a stable HEK293 cell line was used. To record Kv1.3 currents human peripheral T lymphocytes were activated with Phytohemagglutinin A (PHA) to boost Kv1.3 expression and Ca^2+-free intracellular solution to prevent the KCa3.1 channel opening. […] Appropriate voltage protocols were applied to record the K^+ currents from voltage-clamped cells in whole-cell configurations. Toxins were freshly dissolved in the bath solution supplemented with 0.1 mg/mL BSA and applied to the patched cells via a gravity-fed micro-perfusion system with an approximate flow rate of 200 µL/min.
To avoid toxin adsorption onto the plastic surfaces of the perfusion system, 0.1 mg/mL of bovine serum albumin (BSA, Sigma-Aldrich, Budapest, Hungary) was also added into all bath solutions prior to the patch-clamp assay.
Whole-cell currents were recorded using the patch-clamp technique in voltage-clamp mode, following standard protocols. […] Micropipettes were made from GC150F-7.5 borosilicate capillaries (Harvard Apparatus Co., Holliston, MA, USA) using a Sutter P2000 laser puller with tip resistance generally ranging from 3–6 MΩ in the bath solution. Only recordings with a leak current at the holding potential (Vh) of <10% of the peak current at the test potential were included in the data analysis. All recordings were performed at room temperature (20–25 °C). Control and test solutions were perfused to the cells via a gravity-driven micro-perfusion system and AutoMate Perfusion Pencil Multi-Barrel Manifold Tip (AutoMate Scientific, Berkeley, CA, USA), with an approximate flow rate of 200 µL/min, and the excess amount of bath solution was continuously removed from the recording chamber using vacuum suction.
The duration of depolarization pulses was 15 ms for Kv1.3 and 50 ms for Kv1.1 and Kv1.5. However, for Kv1.2, 15–500 ms-long pulses were used to achieve the saturated peak current due to the variable activation kinetics of this channel. […] KCa2.2 and KCa3.1 currents were recorded by applying 150 ms-long voltage ramps to +50 mV from −120 mV every 10 s; the Vh was set to −85 mV.
Before analysis, all current traces were digitally filtered using three-point boxcar smoothing and were corrected for ohmic leakage, only if required. […] Data points in the concentration–response curve represent the mean RCF values of three to six individual cells, with error bars denoting the standard error of the mean (SEM). The data points for each concentration were fitted using the Hill equation: RCF = IC50^H/(IC50^H + [toxin]^H), where IC50 is the dissociation constant, H represents the Hill coefficient, and [toxin] is the concentration of the toxin.
To study the binding kinetics of Cvill toxins, the peak current during the application of toxin at time point t (It) was normalized to the peak current (I0) before the toxin exposure (Inorm = It/I0) and plotted as a function of time.

[1] = read-out: inhibition of hKv1.3 current

| Structure (SMILES) | effect on hKv1.1 current (hKv1.1; 100 nM) | effect on hKv11.1 (hERG1) current (hKv11.1 (hERG1)) | potency estimated from few doses (hKv1.3; read-out: estimated IC50) [nM] | inhibition at 0.1 µM (hKv1.3; read-out: inhibition of Kv1.3) [%] | inhibition at 0.1 µM (hKv1.3; [1]) [%] | reduction of hKv1.1 peak current (hKv1.1; 100 nM, representative record, equilibrium block) | potency estimated from few doses (hKv1.1; CHO, read-out: estimated IC50) [nM] | inhibition at 0.1 µM (hKv1.1; CHO, read-out: inhibition of Kv1.1 current) [%] | IC50 (hKv1.3) [nM] | Kd (hKv1.3) [nM] | koff (hKv1.3) [s⁻¹] | kon (hKv1.3) [M⁻¹ s⁻¹] | reversibility of Kv1.3 block (hKv1.3; 15 nM, then toxin-free solution) | equilibrium block of Kv1.3 (hKv1.3; 15 nM, n = 3) [%] | τon (development of block) (hKv1.3; Kv1.3, 15 nM, mean ± SEM, n = 3) [s] | τon, representative fit (hKv1.3; Kv1.3, 15 nM, representative fit (Figure S5B)) [s] | Hill coefficient (H) (hKv1.3; Kv1.3, Hill equation fit of RCF values) | τoff (wash-out) (hKv1.3; Kv1.3, after 15 nM, mean ± SEM, n = 3) [s] | τoff, representative fit (hKv1.3; Kv1.3, after 15 nM, representative fit (Figure S5B)) [s] |
| --- | --- | --- | --- | --- | --- | --- | --- | --- | --- | --- | --- | --- | --- | --- | --- | --- | --- | --- | --- |
| CC[C@H](C)[C@H](N)C(=O)N[C@@H](Cc1ccccc1)C(=O)N[C@H](C(=O)N[C@@H](CC(N)=O)C(=O)N[C@H](C(=O)N[C@@H](CCCCN)C(=O)N[C@H]1CSSC[C@@H]2NC(=O)[C@H](CCCCN)NC(=O)CNC(=O)CNC(=O)[C@H](C)NC(=O)[C@H](Cc3c[nH]cn3)NC(=O)[C@H](CCC(N)=O)NC(=O)CNC(=O)[C@H](Cc3ccccc3)NC(=O)[C@H](CCCNC(=N)N)NC(=O)[C@H](CC(=O)O)NC(=O)[C@H](CCCCN)NC(=O)[C@@H]3CSSC[C@@H](C(=O)N[C@@H](Cc4ccc(O)cc4)C(=O)N4CCC[C@H]4C(=O)O)NC(=O)[C@H](CCCCN)NC(=O)[C@H](CSSC[C@H](NC(=O)[C@H](CCC(N)=O)NC(=O)[C@H](CCC(N)=O)NC(=O)[C@@H]4CCCN4C(=O)[C@H](CC(C)C)NC(=O)[C@H](CC(=O)O)NC1=O)C(=O)N[C@@H](CC(C)C)C(=O)N[C@@H](CCCNC(=N)N)C(=O)N1CCC[C@H]1C(=O)N3)NC(=O)[C@H](CCCCN)NC(=O)CNC(=O)[C@H](CC(N)=O)NC(=O)[C@H]([C@@H](C)CC)NC2=O)C(C)C)[C@@H](C)CC [Cvill6] (H-IFINVKCDLPQQCLRPCKDRFGQHAGGKCINGKCKCYP-OH; disulfide 7-29, 13-34, 17-36 (inferred); N-terminus and C-terminus assumed) | no change in current amplitudes | no change in current amplitudes | ~840 | ~11 | ~13 |  |  |  |  |  |  |  |  |  |  |  |  |  |  |
| CC[C@H](C)[C@H](NC(=O)[C@H](Cc1ccccc1)NC(=O)[C@@H](N)[C@@H](C)O)C(=O)N[C@@H](CC(N)=O)C(=O)N[C@H](C(=O)N[C@@H](CCCCN)C(=O)N[C@H]1CSSC[C@@H]2NC(=O)[C@H](CCCCN)NC(=O)CNC(=O)CNC(=O)[C@H](C)NC(=O)[C@H](Cc3c[nH]cn3)NC(=O)[C@@H]3CCCN3C(=O)CNC(=O)[C@H](Cc3ccc(O)cc3)NC(=O)[C@H](CC(C)C)NC(=O)[C@H](CC(=O)O)NC(=O)[C@H](CCCCN)NC(=O)[C@@H]3CSSC[C@@H](C(=O)N[C@@H](Cc4ccc(O)cc4)C(=O)N[C@@H](CC(N)=O)C(=O)N[C@@H](CC(N)=O)C(N)=O)NC(=O)[C@H](CCCCN)NC(=O)[C@H](CSSC[C@H](NC(=O)[C@H](CCC(N)=O)NC(=O)[C@H](CCCCN)NC(=O)[C@@H]4CCCN4C(=O)[C@H](CO)NC(=O)[C@H]([C@@H](C)O)NC1=O)C(=O)N[C@@H](CC(C)C)C(=O)N[C@@H](CCCCN)C(=O)N1CCC[C@H]1C(=O)N3)NC(=O)[C@H](CCCCN)NC(=O)CNC(=O)[C@H](CC(N)=O)NC(=O)[C@H](CCSC)NC2=O)C(C)C [Cvill7] (H-TFINVKCTSPKQCLKPCKDLYGPHAGGKCMNGKCKCYNN-NH2; disulfide 7-29, 13-34, 17-36; N-terminus and C-terminus assumed) |  | did not show any effect |  |  | ~86 | ~ 32% | ~192 | ~34 | 7.2 ± 0.64 | 25 | 0.032 ± 0.0068 | 1.3e+06 | fully reversible with rapid association and dissociation kinetics | 67 ± 3 | 20 ± 1.8 | 22.6 | 0.73 | 34 ± 6 | 34.5 |
